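The compound was tested at five concentrations on cells cultured in 96-well plates, with a 48-hour exposure period. TGI is the concentration that stops growth completely.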
Tests used:
Experiment in all cases: NCI anticancer screen, dose series, 48 h
MALME-3M melanoma = test system: MALME-3M melanoma
RXF 393 renal = test system: RXF 393 renal
A498 renal = test system: A498 renal
COLO 205 colon = test system: COLO 205 colon
KM20L2 colon = test system: KM20L2 colon
EKVX NSCLC = test system: EKVX NSCLC
SK-MEL-5 melanoma = test system: SK-MEL-5 melanoma
DLD-1 colon = test system: DLD-1 colon
HCC-2998 colon = test system: HCC-2998 colon
HT29 colon = test system: HT29 colon
SF-295 CNS = test system: SF-295 CNS
HOP-62 NSCLC = test system: HOP-62 NSCLC
SR leukemia = test system: SR leukemia
HCT-15 colon = test system: HCT-15 colon
K-562 leukemia = test system: K-562 leukemia
NCI-H226 lung = test system: NCI-H226 lung
IGROV1 ovarian = test system: IGROV1 ovarian
SNB-19 CNS = test system: SNB-19 CNS
SN12C renal = test system: SN12C renal
OVCAR-5 ovarian = test system: OVCAR-5 ovarian
SF-268 CNS = test system: SF-268 CNS
KM12 colon = test system: KM12 colon
RPMI-8226 leukemia = test system: RPMI-8226 leukemia
DMS 273 small cell lung = test system: DMS 273 small cell lung
NCI-H522 lung = test system: NCI-H522 lung
A549 NSCLC = test system: A549 NSCLC
HL-60(TB) leukemia = test system: HL-60(TB) leukemia
SK-OV-3 ovarian = test system: SK-OV-3 ovarian
CCRF-CEM leukemia = test system: CCRF-CEM leukemia
XF 498 CNS = test system: XF 498 CNS
M14 melanoma = test system: M14 melanoma
M19-MEL melanoma = test system: M19-MEL melanoma
OVCAR-8 ovarian = test system: OVCAR-8 ovarian
U251 CNS = test system: U251 CNS
SK-MEL-2 melanoma = test system: SK-MEL-2 melanoma
RXF-631 renal = test system: RXF-631 renal
DMS 114 small cell lung = test system: DMS 114 small cell lung
SNB-78 CNS = test system: SNB-78 CNS
SNB-75 CNS = test system: SNB-75 CNS
NCI-H23 lung = test system: NCI-H23 lung
LXFL 529 NSCLC = test system: LXFL 529 NSCLC
TK-10 renal = test system: TK-10 renal
MOLT-4 leukemia = test system: MOLT-4 leukemia
OVCAR-3 ovarian = test system: OVCAR-3 ovarian
HOP-18 NSCLC = test system: HOP-18 NSCLC
786-0 renal = test system: 786-0 renal
ACHN renal = test system: ACHN renal
NCI-H460 lung = test system: NCI-H460 lung
SF-539 CNS = test system: SF-539 CNS
CAKI-1 renal = test system: CAKI-1 renal
HCT-116 colon = test system: HCT-116 colon
UO-31 renal = test system: UO-31 renal
UACC-257 melanoma = test system: UACC-257 melanoma
SW-620 colon = test system: SW-620 colon
UACC-62 melanoma = test system: UACC-62 melanoma
SK-MEL-28 melanoma = test system: SK-MEL-28 melanoma
LOX IMVI melanoma = test system: LOX IMVI melanoma
OVCAR-4 ovarian = test system: OVCAR-4 ovarian
HOP-92 NSCLC = test system: HOP-92 NSCLC

## Cc1c(NC(=O)/C(=N/NC(=S)N=N)C2C(=O)CC(C)(C)CC2=O)c(O)c2ccccc2c1O
MALME-3M melanoma
  TGI: 29.6 µM
RXF 393 renal
  TGI: 33.2 µM
A498 renal
  TGI: 35.7 µM
COLO 205 colon
  TGI: 25.5 µM
KM20L2 colon
  TGI: 40.4 µM
EKVX NSCLC
  TGI: 32.2 µM
SK-MEL-5 melanoma
  TGI: 11.3 µM
DLD-1 colon
  TGI: 20.7 µM
HCC-2998 colon
  TGI: 23.3 µM
HT29 colon
  TGI: 33.6 µM
SF-295 CNS
  TGI: 27.6 µM
HOP-62 NSCLC
  TGI: 36 µM
SR leukemia
  TGI: 14.9 µM
HCT-15 colon
  TGI: 18.8 µM
K-562 leukemia
  TGI: 62.8 µM
NCI-H226 lung
  TGI: 27.7 µM
IGROV1 ovarian
  TGI: 19.8 µM
SNB-19 CNS
  TGI: 26.5 µM
SN12C renal
  TGI: 20.1 µM
OVCAR-5 ovarian
  TGI: 36.9 µM
SF-268 CNS
  TGI: 21.7 µM
KM12 colon
  TGI: 22.1 µM
RPMI-8226 leukemia
  TGI: 56.7 µM
DMS 273 small cell lung
  TGI: 22.4 µM
NCI-H522 lung
  TGI: 8.39 µM
A549 NSCLC
  TGI: 21.7 µM
HL-60(TB) leukemia
  TGI: 22.7 µM
SK-OV-3 ovarian
  TGI: 36.9 µM
CCRF-CEM leukemia
  TGI: 21.1 µM
XF 498 CNS
  TGI: 28.9 µM
M14 melanoma
  TGI: 18.5 µM
M19-MEL melanoma
  TGI: 2.95 µM
OVCAR-8 ovarian
  TGI: 17.6 µM
U251 CNS
  TGI: 14 µM
SK-MEL-2 melanoma
  TGI: 26.1 µM
RXF-631 renal
  TGI: 31.7 µM
DMS 114 small cell lung
  TGI: 4.17 µM
SNB-78 CNS
  TGI: 58.8 µM
SNB-75 CNS
  TGI: 45.6 µM
NCI-H23 lung
  TGI: 11.9 µM
LXFL 529 NSCLC
  TGI: 23.7 µM
TK-10 renal
  TGI: 35.6 µM
MOLT-4 leukemia
  TGI: 15.7 µM
OVCAR-3 ovarian
  TGI: 6.5 µM
HOP-18 NSCLC
  TGI: 30.4 µM
786-0 renal
  TGI: 27.2 µM
ACHN renal
  TGI: 26.8 µM
NCI-H460 lung
  TGI: 64.9 µM
SF-539 CNS
  TGI: 12.4 µM
CAKI-1 renal
  TGI: 37.6 µM
HCT-116 colon
  TGI: 13.7 µM
UO-31 renal
  TGI: 25.4 µM
UACC-257 melanoma
  TGI: 14 µM
SW-620 colon
  TGI: 22.3 µM
UACC-62 melanoma
  TGI: 6 µM
SK-MEL-28 melanoma
  TGI: 26.4 µM
LOX IMVI melanoma
  TGI: 12 µM
OVCAR-4 ovarian
  TGI: 27 µM

## COc1ccc(C(c2ccc(C(C)C)cc(OC)c2=O)c2ccc(C(C)C)cc(OC)c2=O)cc1
MALME-3M melanoma
  TGI: 30.6 µM
RXF 393 renal
  TGI: 15 µM
A498 renal
  TGI: 31.7 µM
COLO 205 colon
  TGI: 31.1 µM
KM20L2 colon
  TGI: 27 µM
EKVX NSCLC
  TGI: 26.6 µM
SK-MEL-5 melanoma
  TGI: 27.4 µM
DLD-1 colon
  TGI: 19.6 µM
HT29 colon
  TGI: 22.7 µM
SF-295 CNS
  TGI: 29.7 µM
HOP-62 NSCLC
  TGI: 35.5 µM
SR leukemia
  TGI: 38.2 µM
HCT-15 colon
  TGI: 25.3 µM
K-562 leukemia
  TGI: 35.9 µM
NCI-H226 lung
  TGI: 32.3 µM
SNB-19 CNS
  TGI: 29.3 µM
SN12C renal
  TGI: 30.3 µM
OVCAR-5 ovarian
  TGI: 34.3 µM
SF-268 CNS
  TGI: 26.5 µM
KM12 colon
  TGI: 26.4 µM
RPMI-8226 leukemia
  TGI: 25.6 µM
DMS 273 small cell lung
  TGI: 28 µM
NCI-H522 lung
  TGI: 27.8 µM
A549 NSCLC
  TGI: 24.6 µM
HL-60(TB) leukemia
  TGI: 41.9 µM
SK-OV-3 ovarian
  TGI: 32.3 µM
CCRF-CEM leukemia
  TGI: 38.5 µM
XF 498 CNS
  TGI: 34.7 µM
M14 melanoma
  TGI: 28 µM
M19-MEL melanoma
  TGI: 27.1 µM
OVCAR-8 ovarian
  TGI: 32.5 µM
U251 CNS
  TGI: 26.6 µM
SK-MEL-2 melanoma
  TGI: 29.3 µM
RXF-631 renal
  TGI: 34.8 µM
DMS 114 small cell lung
  TGI: 24.7 µM
SNB-78 CNS
  TGI: 27.3 µM
SNB-75 CNS
  TGI: 34 µM
NCI-H23 lung
  TGI: 30.8 µM
LXFL 529 NSCLC
  TGI: 28.1 µM
TK-10 renal
  TGI: 34.2 µM
MOLT-4 leukemia
  TGI: 31.3 µM
OVCAR-3 ovarian
  TGI: 26 µM
HOP-18 NSCLC
  TGI: 40.1 µM
786-0 renal
  TGI: 30.5 µM
NCI-H460 lung
  TGI: 30 µM
SF-539 CNS
  TGI: 30.9 µM
CAKI-1 renal
  TGI: 33.3 µM
HCT-116 colon
  TGI: 23.1 µM
UO-31 renal
  TGI: 27.3 µM
HOP-92 NSCLC
  TGI: 27.1 µM
UACC-257 melanoma
  TGI: 29 µM
SW-620 colon
  TGI: 28.8 µM
UACC-62 melanoma
  TGI: 28.1 µM
LOX IMVI melanoma
  TGI: 31 µM
OVCAR-4 ovarian
  TGI: 24.9 µM
